Common to all, as to type: cell-based, human
The subject of one series is senescent IMR-90 cells. Nature of the series: xCELLigence RTCA impedance viability assay, senescent cells. The procedure: (§1) Human IMR-90 fibroblasts (ATCC, USA) were treated with 300 nM of doxorubicin hydrochloride (Millipore Sigma, USA; Cat #504042) in DMEM complete media for 24 hours or ionizing radiation (10 Gy X-ray) and maintained in culture. Primary human endothelial cells were treated with 250 nM of doxorubicin in promo cell basal medium supplemented with Growth Medium MV 2 Supplement Pack for 24 hours and maintained in culture. Senescent cells were used 7-13 days following treatment.
For measurement of background values, 50 μl of complete medium was added to E-Plates 96 (Agilent). Cells were seeded in a total of 200 μl of medium per well at a density of 10,000 cells per well. Cell attachment was monitored using the RTCA MP (Agilent) instrument and the RTCA software (Agilent). Media was replaced with media containing either DMSO, vacuolin-1 or apilimod. Cells treated with 0.2% Triton X-100 was used as a 100% dead cell positive control for cytotoxicity assays. After drug addition, impedance measurements were recorded every 15 minutes. All experiments were performed in at least 5 replicates for each dose. Changes in impedance were expressed as a cell index (CI) value, which derives from relative impedance changes corresponding to cellular coverage of the electrode sensors, normalized to baseline impedance values with medium only. To analyze the acquired data, CI values were exported, and percentage of attached cell surface was calculated in relation to positive controls and DMSO-treated cells.
Senescent cells are known to employ several mechanisms to increase their survival. For example, increased expression of the pro-survival BCL-family proteins has been widely studied. In fact, BCL antagonism has been the basis of many senolytic drugs (see, e.g., Zhu, et al., Aging Cell. 2016 June; 15(3):428-35). Vacuolin-1 was used to determine if lysosomal exocytosis is a mechanism for senescent cell survival. Vacuolin-1 is a potent inhibitor of Phosphatidylinositol-3-phosphate 5-kinase type III (PIKfyve), which is a key player in lysosomal exocytosis allowing lysosomes to fuse with the plasma membrane. The viability assay was performed in senescent IMR-90 cells using xCELLigence Real-Time Cell Analysis (RTCA) system that uses label-free cellular impedance to monitor cell health and viability over time.

Series [1] in a line: Crystal violet staining cell viability, non-senescent cells. The conditions noted are these: human, non-senescent IMR-90 fibroblasts, non-senescent cells, read-out: cell viability, quantification of adherent cells. The procedure: (§2) Cell viability after 48 h of apilimod (1 μM) or vacuolin-1 (1 μM) treatment was estimated by crystal violet. Cells in 6-well cell culture plates (Greiner Bio-One; Cat #657160) were washed twice with PBS, incubated with 4% paraformaldehyde for 15 minutes at room temperature, then stained with 0.25% crystal violet for 10 minutes. Cells were washed with deionized water and imaged, 3 images per well.
(§3) Apilimod is a clinical PIKfyve inhibitor. Apilimod was used to further validate the senolytic effects of PIKfyve inhibitors. […] To further characterize the potent cytotoxic effect of apilimod on non-senescent versus senescent cells, IMR-90 fibroblasts were treated with 1 μM of apilimod. […] Of note, the decrease in viable apilimod-treated non-senescent cells after 48 hours of treatment is likely in part due to a decrease in proliferation rather than viability of apilimod-treated cells.

Series [2] deals with non-senescent IMR-90 fibroblasts. The description is as above. The conditions noted are these: 1 μM, 48 hours. The procedure: as §2, §3
Series [3] concerns senescent IMR-90 fibroblasts. Nature of the series: Crystal violet staining cell viability, senescent cells. As to conditions: 48 hours. As for the experimental part:
as §1, §2, §3

Series [4] concerns non-senescent (NS) IMR-90 cells. Nature of the series: xCELLigence RTCA impedance viability assay, non-senescent cells. The conditions noted are these: 48 hours of treatment with 1 μM.

Here are results for 2 compounds from US20250208133A1, “SENESCENT CELL SURFACE MARKERS” (SENS RESEARCH FOUNDATION, priority 2022, published 2025).

The structures appear in SMILES notation.

Take `Cc1cccc(/C=N/Nc2cc(N3CCOCC3)nc(OCCc3ccccn3)n2)c1` [apilimod]: the senescent cell survival result in the series on senescent IMR-90 cells (48 hours of treatment with 1 μM) and with senescent IMR-90 cells (48 hours of treatment with 5 μM) was “No senescent cells survived” in each case. Further, in the series with senescent IMR-90 cells (dose response), the senescent cell viability result is given as “dose-dependent declines in senescent cell viability”. Also, the viability at 48 h, 1 µM in series [1] was found to be 92%. Besides, the “non-senescent cell viability, light microscopy of crystal violet-stained cells” value in series [2] is “no effect”. Moreover, in series [3] (1 μM), the “viability of senescent cells, light microscopy of crystal violet-stained cells” value was “significant decrease”. For the same compound, the viability at 1 µM in series [3] (Homo sapiens, IMR-90, senescent condition, read-out: viable cells, quantification of adherent cells) was 17%.
`Ic1cccc(/C=N/Nc2nc(N3CCOCC3)nc(N(c3ccccc3)c3ccccc3)n2)c1` [vacuolin-1]: the “mean normalized cell index” value was found to be 1.2 in series [4] and 0.4 in the series on senescent IMR-90 cells (senescent cells, 48 hours of treatment with 1 μM). The “selective killing of senescent cells by blocking lysosomal exocytosis” value in the series with senescent IMR-90 cells (senescent vs NS IMR-90 cells, dose response) is “selectively killed senescent IMR-90 cells in a dose-dependent manner”.
